Consider 1 compound from patent US20080161188A1, “HERBICIDAL COMPOSITIONS AND METHODS OF CONTROLLING WEED GROWTH” (priority 2006, published 2008).

For the experiment, the system named is turf (perennial rye grass, fescue, crabgrass, and several unidentified broad-leaf weeds). Put plainly: Field test plots: rate of control of turf by ready to use glyphosate composition with fatty acid additive. It is filed as in vivo. To be noted: versus the same compositions without (water control) short chain fatty acid.

Description: This composition included all of the water necessary to apply for weed control and was not further diluted.
The test plots included several species including perennial rye grass, fescue, crabgrass, and several unidentified broad-leaf weeds. As this is a non-selective test, all growing plants (monocot and broadleaf) were evaluated as one species referred to as “turf.” Test plots were 4-ft by 60 ft rectangles with untreated check plots to either side. Evaluations were made at 3 days, 7 days and 14 days by visually inspecting each plot comparing health and vigor of turf (color and mortality) to adjacent untreated controls.

For `CC(O)C(=O)O` (stereo not shown) [Lactic acid, lactic acid], the “enhancing the rate of weed control in herbicide compositions” value is listed as “particularly effective”.
